This is an account of results in publication PMC9035832, “Synthesis and Evaluation of a Non-Peptide Small-Molecule Drug Conjugate Targeting Integrin αVβ3” (Frontiers in Chemistry, 2022).

Where two headings read alike, the source gives them in different places.

One assay concerns the target T1, integrin α5β1 (Homo sapiens, UniProt P05556+P08648).
T1 construct: using the isolated extracellular domain of integrins αVβ3 and α5β1; purchased R&D
Briefly: ELISA-like competitive integrin binding assay (fibronectin-coated plates). As for the experimental part: (§1) An ELISA-like assay using the isolated extracellular domain of integrins αVβ3 and α5β1 was performed in flat-bottom 96-well immuno plates (Brand) to determine the activities of the synthesized compounds. All wells were coated overnight with the native integrin ligand vitronectin or fibronectin (1) (Table 1) in a carbonate buffer (150 µl/well), followed by washing of each well with the PBS-T buffer (3 × 200 µl/well) (Table 1) and blocking for 1 h with the TS-B buffer (150 µl/well) at RT. […] The protein-coated assay plate was washed with the PBS-T buffer (3 × 200 µl/well), and 50 µl of the dilution series was transferred to the assay plate wells B–G. The TS-B buffer was filled into row A (100 µl/well) as the negative control and row H (50 µl/well) as the positive control. Afterward, the corresponding human integrin (2, 50 µl/well) (Table 1) in the TS-B buffer was added to row B–H and incubated for 1 h at RT. After washing the assay plate with the PBS-T buffer (3 × 200 µl/well), the primary antibody (3, 100 µl/well) (Table 1) was transferred to each well and incubated for 1 h at RT. Then the plate was washed with the PBS-T buffer (3 × 200 µl/well), treated with the secondary antibody (4, 100 µl/well) (Table 1), and incubated for 1 h at RT. The plate was washed with the PBS-T buffer (3 × 200 µl/well), and SeramunBlau® fast2 (Seramun Diagnostics GmbH, 50 µl/well) was added to each well. Staining was stopped with 3 M aq. […] The absorbance was measured with a plate reader at 450 nm and corrected by subtraction of the absorbance at 620 nm. Afterward, the resulting values were plotted and analyzed using OriginPro® 2020b where the inflection point of a DoseResp fit describes the IC50 value. All compounds were tested in duplicates or triplicates for both integrins.
(§2) The affinities (Table 4) of the RGD mimetics (Table 3) toward the integrins αVβ3 and α5β1 were determined in a competitive enzyme-linked immunosorbent assay (ELISA) using recombinant human integrins with the native ligands vitronectin and fibronectin as described in the literature ([Mas-Moruno et al., 2016b]). […]
(§3) Table S1: Proteins and buffers applied in the ELISA-like assay.
(§4) An ELISA-like assay using the isolated extracellular domain of integrins αVβ3 and α5β1 was performed in flat-bottom 96-well immuno plates (Brand) to determine the activities of the synthesised compounds.
(§5) All wells were coated overnight with the native integrin ligand vitronectin or fibronectin (Table S1, (1)) in carbonate buffer (150 µL/well), followed by washing of each well with PBS-T buffer (3×200 µL/well) (Table S1) and blocking for 1 h with TS-B buffer (150 µL/well) at RT. A dilution […]
(§6) 1:10 dilution) in TS-B buffer. The protein-coated assay plate was washed with PBS-T buffer (3×200 µL/well) and 50 µL of the dilution series was transferred to the assay plate wells B-G. TS-B buffer was filled into row A (100 µL/well) as negative control and row H (50 µL/well) as positive control. Afterwards, the corresponding human integrin (2, 50 µL/well)) (Table S1) in TS-B buffer was added to row B-H and incubated for 1 h at RT. After washing the assay plate with PBS-T buffer (3×200 µL/well) the primary antibody (3, 100 µL/well) (Table S1) was transferred to each well and incubated for 1 h at RT. Then the plate was washed with PBS-T buffer (3×200 µL/well), treated with […]

A further assay deals with T2, integrin αVβ3 (Homo sapiens, UniProt P05106+P06756).
T2 construct: using the isolated extracellular domain of integrins αVβ3 and α5β1; purchased Sino Biological
Briefly: ELISA-like competitive integrin binding assay (vitronectin-coated plates). On the procedure: as §1, §2, §3, §4, §5, §6
A general note: An ELISA detects its analyte on a solid surface through an enzyme-linked reagent.

Setting [1] is: isolated extracellular domain of human integrin α5β1, ligand fibronectin, Cilengitide as reference on all plates.
Where [2] appears, read: isolated extracellular domain of human integrin αVβ3, ligand vitronectin, Cilengitide as reference on all plates.

By IC50 is commonly meant the concentration that gives 50% inhibition. Lower therefore signals inhibition by little substance. As for `O=C(N[C@@H](Cc1ccc(OCCCCNC2=NCCN2)cc1)C(=O)O)c1cccc(O)c1` [6ca], the IC50 at integrin α5β1 (setting [1]) came out at 19.9 ± 8.7 nM; on integrin αVβ3 (setting [2]), 1.01 ± 0.56 nM.
Regarding `O=C(NC(Cc1ccc(OCCCCCNc2ncccn2)cc1)C(=O)O)c1cccc(O)c1` (stereo not shown) [7cb], the IC50 was above 10000 nM at integrin α5β1 (setting [1]) and 2890 nM at integrin αVβ3 (setting [2]).
For the molecule `O=C(NC(Cc1ccc(OCCCNc2ncccn2)cc1)C(=O)O)c1ccccc1` (stereo not shown) [5ab], the IC50 is above 10000 nM on integrin α5β1 (setting [1]) and 1310 nM at integrin αVβ3 (setting [2]).
As to `O=C(N[C@@H](Cc1ccc(OCCCCNC2=NCCN2)cc1)C(=O)O)OCc1ccccc1` [6da], the 50% inhibitory concentration (IC50) on integrin α5β1 was found to be 901 ± 223 nM; on integrin αVβ3, 1.2 ± 0.11 nM.
In the same order, the values of `O=C(N[C@@H](Cc1ccc(OCCCNC2=NCCN2)cc1)C(=O)O)OCc1ccccc1` [5da] are 162 ± 36 nM and 1.32 ± 0.11 nM.
Consider `O=C(N[C@@H](Cc1ccc(OCCCCCNC2=NCCCN2)cc1)C(=O)O)c1ccccc1` [7ac], for which the values for the IC50 on integrin α5β1 and on integrin αVβ3 were 2770 nM and 58.8 ± 14.4 nM, respectively.
In the same order, the values of `O=C(N[C@@H](Cc1ccc(OCCCNC2=NCCN2)cc1)C(=O)O)c1ccccc1` [5aa] are 25.2 ± 7.35 nM and 38.5 ± 24.3 nM.
Take `O=C(NC(Cc1ccc(OCCCCNc2ncccn2)cc1)C(=O)O)c1ccc(O)cc1` (stereo not shown) [6bb]: the IC50 is above 10000 nM on integrin α5β1 (setting [1]) and 5290 nM at integrin αVβ3 (setting [2]).
In the case of `O=C(N[C@@H](Cc1ccc(OCCCCNc2ncccn2)cc1)C(=O)O)c1ccccc1` [6ab], the values for the IC50 at integrin α5β1 and on integrin αVβ3 were above 10000 nM and 6170 nM, respectively.
As for `O=C(NC(Cc1ccc(OCCCCCNC2=NCCN2)cc1)C(=O)O)c1ccc(O)cc1` (stereo not shown) [7ba], the IC50 is 1650 nM on integrin α5β1 (setting [1]) and 2.01 ± 0.4 nM at integrin αVβ3 (setting [2]).
As for `O=C(N[C@@H](Cc1ccc(OCCCCCNc2ncccn2)cc1)C(=O)O)c1ccc(O)cc1` [7bb], the figures for the 50% inhibitory concentration (IC50) at integrin α5β1 and at integrin αVβ3 were above 10000 nM and 8840 nM, respectively.
On to `O=C(NC(Cc1ccc(OCCCCCNc2ncccn2)cc1)C(=O)O)c1ccccc1` (stereo not shown) [7ab], for which the IC50 on integrin α5β1 (setting [1]) was above 10000 nM; at integrin αVβ3 (setting [2]), 8770 nM.
With `O=C(N[C@@H](Cc1ccc(OCCCCNC2=NCCCN2)cc1)C(=O)O)c1cccc(O)c1` [6cc], the half-maximal inhibitory concentration (IC50) is 107 ± 32 nM at integrin α5β1 and 90.4 ± 31.3 nM at integrin αVβ3.
As to `O=C(N[C@@H](Cc1ccc(OCCCNC2=NCCCN2)cc1)C(=O)O)OCc1ccccc1` [5dc], the values for the IC50 on integrin α5β1 and at integrin αVβ3 were 71.6 ± 16.1 nM and 4.68 ± 4.47 nM, respectively.
As to `O=C(N[C@@H](Cc1ccc(OCCCNC2=NCCCN2)cc1)C(=O)O)c1ccccc1` [5ac], the IC50 was 17.4 ± 3.34 nM on integrin α5β1 and 18.1 ± 3.68 nM on integrin αVβ3.
The matching figures for `O=C(N[C@@H](Cc1ccc(OCCCNc2ncccn2)cc1)C(=O)O)c1ccc(O)cc1` [5bb]: above 10000 nM and 6530 nM.
With `O=C(N[C@@H](Cc1ccc(OCCCCNC2=NCCN2)cc1)C(=O)O)c1ccccc1` [6aa], the IC50 was 175 ± 73.7 nM on integrin α5β1 and 25.8 ± 6.77 nM at integrin αVβ3.
Turning to `O=C(N[C@@H](Cc1ccc(OCCCCCNc2ncccn2)cc1)C(=O)O)OCc1ccccc1` [7db], the IC50 on integrin α5β1 was determined as 8360 nM; at integrin αVβ3, 2630 nM.
On to `O=C(N[C@@H](Cc1ccc(OCCCCCNC2=NCCCN2)cc1)C(=O)O)c1ccc(O)cc1` [7bc], for which the IC50 was found to be 103 ± 54.4 nM at integrin α5β1 and 36.4 ± 14.3 nM on integrin αVβ3.
As to `O=C(N[C@@H](Cc1ccc(OCCCCCNC2=NCCCN2)cc1)C(=O)O)OCc1ccccc1` [7dc], the IC50 on integrin α5β1 was above 10000 nM; at integrin αVβ3 it was 2.93 ± 0.12 nM.
Regarding `O=C(N[C@@H](Cc1ccc(OCCCNc2ncccn2)cc1)C(=O)O)OCc1ccccc1` [5db], the IC50 is above 10000 nM on integrin α5β1 and 237 ± 69.7 nM at integrin αVβ3.
`O=C(NC(Cc1ccc(OCCCNC2=NCCCN2)cc1)C(=O)O)c1ccc(O)cc1` (stereo not shown) [5bc]: the results for the IC50 at integrin α5β1 (setting [1]) and at integrin αVβ3 (setting [2]) were 18.5 ± 3.65 nM and 70.4 ± 0.57 nM, respectively.
For `O=C(N[C@@H](Cc1ccc(OCCCCCNC2=NCCN2)cc1)C(=O)O)c1ccccc1` [7aa], the figures for the IC50 on integrin α5β1 and at integrin αVβ3 were 1690 nM and 38.5 ± 9.02 nM, respectively.
As for `O=C(NC(Cc1ccc(OCCCCNc2ncccn2)cc1)C(=O)O)c1cccc(O)c1` (stereo not shown) [6cb], the IC50 on integrin α5β1 (setting [1]) is above 10000 nM; at integrin αVβ3 (setting [2]), 1850 ± 241 nM.
Take `O=C(N[C@@H](Cc1ccc(OCCCCNC2=NCCCN2)cc1)C(=O)O)OCc1ccccc1` [6dc]: the IC50 is 745 ± 117 nM at integrin α5β1 and 0.57 ± 0.03 nM on integrin αVβ3.
`O=C(N[C@@H](Cc1ccc(OCCCCNC2=NCCCN2)cc1)C(=O)O)c1ccc(O)cc1` [6bc]: the figures for the IC50 on integrin α5β1 and on integrin αVβ3 were 511 ± 183 nM and 38.7 ± 15.5 nM, respectively.
In the same order, the values of `O=C(N[C@@H](Cc1ccc(OCCCCCNC2=NCCN2)cc1)C(=O)O)c1cccc(O)c1` [7ca] are 6080 nM and 98.1 ± 74.8 nM.
Turning to `O=C(N[C@@H](Cc1ccc(OCCCCNC2=NCCN2)cc1)C(=O)O)c1ccc(O)cc1` [6ba], the IC50 at integrin α5β1 worked out at 35.2 ± 18.4 nM; on integrin αVβ3, 1900 ± 175 nM.
Take `O=C(N[C@@H](Cc1ccc(OCCCNC2=NCCCN2)cc1)C(=O)O)c1cccc(O)c1` [5cc]: the IC50 on integrin α5β1 was 32.8 ± 11.2 nM; at integrin αVβ3, 452 ± 120 nM.
In the same order, the values of `[N-]=[N+]=NCCOCCOCCOc1ccc(C(=O)N[C@@H](Cc2ccc(OCCCCCNC3=NCCN3)cc2)C(=O)O)cc1` [10c] are 136 ± 27.4 nM and 21 ± 5.84 nM.
For `[N-]=[N+]=NCCOCCOCCOc1ccc(C(=O)N[C@@H](Cc2ccc(OCCCNC3=NCCN3)cc2)C(=O)O)cc1` [10a], the IC50 on integrin α5β1 was found to be 40 ± 6.5 nM; at integrin αVβ3 it was 278 ± 69.2 nM.
As to `O=C(N[C@@H](Cc1ccc(OCCCCCNC2=NCCN2)cc1)C(=O)O)OCc1ccccc1` [7da], the IC50 at integrin α5β1 was 7750 nM; on integrin αVβ3, 3.76 ± 1.98 nM.
As for `O=C(N[C@@H](Cc1ccc(OCCCNC2=NCCN2)cc1)C(=O)O)c1cccc(O)c1` [5ca], the IC50 at integrin α5β1 was found to be 30.5 ± 20.7 nM; at integrin αVβ3, 9.29 ± 5.77 nM.
In the same order, the values of `[N-]=[N+]=NCCOCCOCCOc1ccc(C(=O)N[C@@H](Cc2ccc(OCCCCNC3=NCCN3)cc2)C(=O)O)cc1` [10b] are 404 ± 282 nM and 129 ± 2.35 nM.
Consider `O=C(N[C@@H](Cc1ccc(OCCCNC2=NCCN2)cc1)C(=O)O)c1ccc(O)cc1` [5ba], for which the values for the IC50 on integrin α5β1 (setting [1]) and on integrin αVβ3 (setting [2]) were 43.4 ± 24.4 nM and 38.8 ± 19.2 nM, respectively.
Turning to `O=C(N[C@@H](Cc1ccc(OCCCCCNC2=NCCCN2)cc1)C(=O)O)c1cccc(O)c1` [7cc], the IC50 at integrin α5β1 (setting [1]) is 210 ± 44.8 nM; on integrin αVβ3 (setting [2]), 42.9 ± 9.47 nM.
For `O=C(N[C@@H](Cc1ccc(OCCCNc2ncccn2)cc1)C(=O)O)c1cccc(O)c1` [5cb], the figures for the IC50 at integrin α5β1 and at integrin αVβ3 were above 10000 nM and 7700 nM, respectively.
In the case of `O=C(NC(Cc1ccc(OCCCCNC2=NCCCN2)cc1)C(=O)O)c1ccccc1` (stereo not shown) [6ac], the IC50 came out at 17.5 ± 6.76 nM on integrin α5β1 (setting [1]) and 32.8 ± 17.6 nM on integrin αVβ3 (setting [2]).
